Experimental data published in patent US9115127B2 (AMGEN INC., priority 2010, dated 2015).

molecular target: T1, wild-type human ALK (cytoplasmic domain, amino acids 1058-1620, N-terminal GST fusion) (Homo sapiens, UniProt Q9UM73); test: ALK Inhibition in Enzyme Assay (Lance TR-FRET kinase assay); type: biochemical
T1 construct: The cytoplasmic domain (amino acids 1058-1620) of wild-type human ALK; GST (N); made in house; host or cells: SF9 insect cells
Protocol: ALK Inhibition in Enzyme Assay
Kinase activity of the purified protein was assessed using a Lance® TR-FRET assay. […] The reaction was allowed to proceed for 90 minutes at room temperature and was then terminated with 20 mM EDTA in 50 mM Tris (pH 7.5), 100 mM NaCl, 0.05% BSA, and 0.1% Tween-20. Phosphorylation of the peptide substrate was detected using the Lance® detection reagents streptavidin-allophycocyanin (SA-APC) and Eu-W1024 anti-phosphotyrosine antibody (PT66) from Perkin Elmer Life Sciences (Waltham, Mass.). The plates were read on a RUBY star plate reader (BMG LABTECH, Cary, N.C.) with an excitation wavelength of 320 nm.

T1 sequence (Q9UM73 1058-1620): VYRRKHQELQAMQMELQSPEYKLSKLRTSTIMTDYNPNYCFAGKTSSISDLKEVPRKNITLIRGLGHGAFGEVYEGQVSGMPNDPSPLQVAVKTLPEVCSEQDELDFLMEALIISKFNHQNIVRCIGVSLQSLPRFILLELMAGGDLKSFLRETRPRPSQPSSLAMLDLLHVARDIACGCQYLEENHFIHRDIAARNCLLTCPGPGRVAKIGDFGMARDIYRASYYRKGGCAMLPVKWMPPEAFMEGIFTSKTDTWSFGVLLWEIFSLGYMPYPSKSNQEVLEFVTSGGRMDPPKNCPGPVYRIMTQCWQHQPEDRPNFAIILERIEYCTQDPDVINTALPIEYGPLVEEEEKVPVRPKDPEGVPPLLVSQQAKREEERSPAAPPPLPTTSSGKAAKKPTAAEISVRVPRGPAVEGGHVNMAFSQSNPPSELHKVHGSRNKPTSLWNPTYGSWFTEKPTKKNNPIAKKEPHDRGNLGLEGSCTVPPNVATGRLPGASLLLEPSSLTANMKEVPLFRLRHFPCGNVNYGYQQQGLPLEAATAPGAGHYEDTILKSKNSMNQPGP

First: O=C(/N=c1\[nH]c2cnc(OCCN3CCCCC3)cc2n1C1CCNCC1)c1ccccc1 [Example 65, (E)-N-(6-(2-(Piperidin-1-yl)ethoxy)-1-(piperidin-4-yl)-1H-imidazo[4,5-c]pyridin-2(3H)-ylidene)benzamide]
Second: CC(C)CN1CCC(n2/c(=N/C(=O)c3ccccc3)[nH]c3cnc(OCCN4CCCCC4)cc32)CC1 [Example 68, (E)-N-(1-(1-Isobutylpiperidin-4-yl)-6-(2-(piperidin-1-yl)ethoxy)-1H-imidazo[4,5-c]pyridin-2(3H)-ylidene)benzamide]
The IC50 of the first is lower: 1000 to 5000 nM for the first, 5000 to 10000 nM for the second. The first is the more potent here.

`CCS(=O)(=O)N1CCC(n2/c(=N/C(=O)c3ccccc3)[nH]c3cnc(OCCN4CCCCC4)cc32)CC1` [Example 66, (E)-N-(1-(1-(Ethylsulfonyl)piperidin-4-yl)-6-(2-(piperidin-1-yl)ethoxy)-1H-imidazo[4,5-c]pyridin-2(3H)-ylidene)benzamide] and `CNS(=O)(=O)N1CCC(n2/c(=N/C(=O)c3ccccc3)[nH]c3cnc(OCCN4CCCCC4)cc32)CC1` [Example 67, (E)-N-(1-(1-(N-Methylsulfamoyl)piperidin-4-yl)-6-(2-(piperidin-1-yl)ethoxy)-1H-imidazo[4,5-c]pyridin-2(3H)-ylidene)benzamide] fall in the same range of IC50: 100 to 1000 nM for the first, 100 to 1000 nM for the second.

`CC(C)S(=O)(=O)N1CCC(n2/c(=N/C(=O)c3ccccc3)[nH]c3cnc(OCCN4CCCCC4)cc32)CC1` [Example 69, (E)-N-(1-(1-(Isopropylsulfonyl)piperidin-4-yl)-6-(2-(piperidin-1-yl)ethoxy)-1H-imidazo[4,5-c]pyridin-2(3H)-ylidene)benzamide] and `CNCC(=O)N1CCC(n2/c(=N/C(=O)c3ccccc3)[nH]c3cnc(OCCN4CCCCC4)cc32)CC1` [Example 75, (E)-N-(1-(1-(2-(Methylamino)acetyl)piperidin-4-yl)-6-(2-(piperidin-1-yl)ethoxy)-1H-imidazo[4,5-c]pyridin-2(3H)-ylidene)benzamide] fall in the same range of IC50: 100 to 1000 nM for the first, 100 to 1000 nM for the second.

First: CC(=O)[C@H]1CC[C@@H](n2/c(=N/C(=O)c3cccc(F)c3)[nH]c3ccc(CN4CCC(C(C)(C)O)CC4)cc32)CC1 [Example 71, (E)-N-(1-(cis-4-Acetylcyclohexyl)-6-((4-(2-hydroxypropan-2-yl)piperidin-1-yl)methyl)-1H-benzo[d]imidazol-2(3H)-ylidene)-3-fluorobenzamide]
Second: CC(C)NC(C)[C@H]1CC[C@@H](n2/c(=N/C(=O)c3cccc(F)c3)[nH]c3ccc(CN4CCC(C(C)(C)O)CC4)cc32)CC1 (stereo partly drawn) [Example 72, (E)-3-Fluoro-N-(6-((4-(2-hydroxypropan-2-yl)piperidin-1-yl)methyl)-1-(cis-4-(1-(isopropylamino)ethyl)cyclohexyl)-1H-benzo[d]imidazol-2(3H)-ylidene)benzamide]
The IC50 of the first is higher: 100 to 1000 nM for the first, under 50 nM for the second.

First: Cc1n[nH]c([C@H]2CC[C@@H](n3/c(=N/C(=O)c4cccc(F)c4)[nH]c4ccc(CO)cc43)CC2)n1 [Example 73, (E)-3-Fluoro-N-(6-(hydroxymethyl)-1-(cis-4-(3-methyl-1H-1,2,4-triazol-5-yl)cyclohexyl)-1H-benzo[d]imidazol-2(3H)-ylidene)benzamide]
Second: Cc1n[nH]c([C@H]2CC[C@@H](n3/c(=N/C(=O)c4cccc(F)c4)[nH]c4ccc(CN5CCC(C(C)(C)O)CC5)cc43)CC2)n1 [Example 74, (E)-3-Fluoro-N-(6-((4-(2-hydroxypropan-2-yl)piperidin-1-yl)methyl)-1-(cis-4-(3-methyl-1H-1,2,4-triazol-5-yl)cyclohexyl)-1H-benzo[d]imidazol-2(3H)-ylidene)benzamide]
The IC50 of the first is higher: 100 to 1000 nM for the first, under 50 nM for the second.

Compared with `CN(CC(=O)N1CCC(n2/c(=N/C(=O)c3ccccc3)[nH]c3cnc(OCCN4CCCCC4)cc32)CC1)C(=O)OC(C)(C)C` [Example 76, (E)-tert-Butyl 2-(4-(2-(benzoylimino)-6-(2-(piperidin-1-yl)ethoxy)-2,3-dihydro-1H-imidazo[4,5-c]pyridin-1-yl)piperidin-1-yl)-2-oxoethyl(methyl)carbamate], `CC(C)NC(=O)[C@H]1CC[C@@H](n2/c(=N/C(=O)c3cccc(C#N)c3)[nH]c3cnc(OCCN4CCCCC4)cc32)CC1` [Example 91, (E)-3-Cyano-N-(1-(cis-4-(isopropylcarbamoyl)cyclohexyl)-6-(2-(piperidin-1-yl)ethoxy)-1H-imidazo[4,5-c]pyridin-2(3H)-ylidene)benzamide] is lower in IC50: 1000 to 5000 nM for the first, under 50 nM for the second.

`CCOC(=O)[C@H]1CC[C@@H](n2/c(=N/C(=O)c3cccc(F)c3)[nH]c3cnc(OCCO)cc32)CC1` [Example 77, cis-Ethyl 4-((E)-2-(3-fluorobenzoylimino)-6-(2-hydroxyethoxy)-2,3-dihydro-1H-imidazo[4,5-c]pyridin-1-yl)cyclohexanecarboxylate] and `CCOC(=O)[C@H]1CC[C@@H](n2/c(=N/C(=O)c3cccc(F)c3)[nH]c3cnc(OCCN4CCC(C(C)(C)O)CC4)cc32)CC1` [Example 78, cis-Ethyl 4-((E)-2-(3-fluorobenzoylimino)-6-(2-(4-(2-hydroxypropan-2-yl)piperidin-1-yl)ethoxy)-2,3-dihydro-1H-imidazo[4,5-c]pyridin-1-yl)cyclohexanecarboxylate] cannot be ordered by IC50: under 50 nM for the first, under 50 nM for the second.

First: CC(C)(O)C1CCN(CCOc2cc3c(cn2)[nH]/c(=N\C(=O)c2cccc(F)c2)n3[C@H]2CC[C@@H](C(=O)O)CC2)CC1 [Example 79, cis-4-((E)-2-(3-Fluorobenzoylimino)-6-(2-(4-(2-hydroxypropan-2-yl)piperidin-1-yl)ethoxy)-2,3-dihydro-1H-imidazo[4,5-c]pyridin-1-yl)cyclohexanecarboxylic acid]
Second: CC(C)(O)C1CCN(CCOc2cc3c(cn2)[nH]/c(=N\C(=O)c2cccc(F)c2)n3[C@H]2CC[C@@H](C(=O)N3CC(O)C3)CC2)CC1 [Example 81, (E)-3-Fluoro-N-(1-(cis-4-(3-hydroxyazetidine-1-carbonyl)cyclohexyl)-6-(2-(4-(2-hydroxypropan-2-yl)piperidin-1-yl)ethoxy)-1H-imidazo[4,5-c]pyridin-2(3H)-ylidene)benzamide]
The IC50 of the first is higher: 1000 to 5000 nM for the first, 100 to 1000 nM for the second. The second is the more potent here.

`CC(C)(O)C1CCN(CCOc2cc3c(cn2)[nH]/c(=N\C(=O)c2cccc(F)c2)n3[C@H]2CC[C@@H](C(=O)N3CC(F)(F)C3)CC2)CC1` [Example 80, (E)-N-(1-(cis-4-(3,3-Difluoroazetidine-1-carbonyl)cyclohexyl)-6-(2-(4-(2-hydroxypropan-2-yl)piperidin-1-yl)ethoxy)-1H-imidazo[4,5-c]pyridin-2(3H)-ylidene)-3-fluorobenzamide] and `CC(C)NC(=O)[C@H]1CC[C@@H](n2/c(=N/C(=O)c3cccc(C(F)(F)F)c3)[nH]c3cnc(OCCN4CCCCC4)cc32)CC1` [Example 92, (E)-N-(1-(cis-4-(Isopropylcarbamoyl)cyclohexyl)-6-(2-(piperidin-1-yl)ethoxy)-1H-imidazo[4,5-c]pyridin-2(3H)-ylidene)-3-(trifluoromethyl)benzamide] cannot be ordered by IC50: under 50 nM for the first, under 50 nM for the second.

`COC(=O)[C@H]1CC[C@@H](n2/c(=N/C(=O)c3ccc(F)cc3)[nH]c3ccc(CN4CCOCC4)cc32)CC1` [Example 85, cis-Methyl 4-((E)-2-(4-fluorobenzoylimino)-6-(morpholinomethyl)-2,3-dihydro-1H-benzo[d]imidazol-1-yl)cyclohexanecarboxylate] and `CC(C)NC(=O)[C@H]1CC[C@@H](n2/c(=N/C(=O)c3ccc(C#N)cc3)[nH]c3cnc(OCCN4CCCCC4)cc32)CC1` [Example 89, (E)-4-Cyano-N-(1-(cis-4-(isopropylcarbamoyl)cyclohexyl)-6-(2-(piperidin-1-yl)ethoxy)-1H-imidazo[4,5-c]pyridin-2(3H)-ylidene)benzamide] cannot be ordered by IC50: under 50 nM for the first, under 50 nM for the second.

Compared with `CC(C)NC(=O)[C@H]1CC[C@@H](n2c(N)nc3cnc(OCCN4CCCCC4)cc32)CC1` [Example 86, cis-4-(2-Amino-6-(2-(piperidin-1-yl)ethoxy)-1H-imidazo[4,5-c]pyridin-1-yl)-N-isopropylcyclohexanecarboxamide], `CC(C)NC(=O)[C@H]1CC[C@@H](n2/c(=N/C(=O)c3cncs3)[nH]c3cnc(OCCN4CCCCC4)cc32)CC1` [Example 88, (E)-N-(1-(cis-4-(Isopropylcarbamoyl)cyclohexyl)-6-(2-(piperidin-1-yl)ethoxy)-1H-imidazo[4,5-c]pyridin-2(3H)-ylidene)thiazole-5-carboxamide] is lower in IC50: 5000 to 10000 nM for the first, 50 to 100 nM for the second.

First: CC(C)NC(=O)[C@H]1CC[C@@H](n2/c(=N/C(=O)c3ccc4ccsc4c3)[nH]c3cnc(OCCN4CCCCC4)cc32)CC1 [Example 87, (E)-N-(1-(cis-4-(Isopropylcarbamoyl)cyclohexyl)-6-(2-(piperidin-1-yl)ethoxy)-1H-imidazo[4,5-c]pyridin-2(3H)-ylidene)benzo[b]thiophene-6-carboxamide]
Second: CC(C)NC(=O)[C@H]1CC[C@@H](n2/c(=N/C(=O)c3ccncc3)[nH]c3cnc(OCCN4CCCCC4)cc32)CC1 [Example 90, (E)-N-(1-(cis-4-(Isopropylcarbamoyl)cyclohexyl)-6-(2-(piperidin-1-yl)ethoxy)-1H-imidazo[4,5-c]pyridin-2(3H)-ylidene)isonicotinamide]
The IC50 of the first is higher: 50 to 100 nM for the first, under 50 nM for the second.

First: CC(C)NC(=O)[C@H]1CC[C@@H](n2/c(=N/C(=O)c3cccc(S(C)(=O)=O)c3)[nH]c3cnc(OCCN4CCCCC4)cc32)CC1 [Example 93, (E)-N-(1-(cis-4-(Isopropylcarbamoyl)cyclohexyl)-6-(2-(piperidin-1-yl)ethoxy)-1H-imidazo[4,5-c]pyridin-2(3H)-ylidene)-3-(methylsulfonyl)benzamide]
Second: CC(C)NC(=O)[C@H]1CC[C@@H](n2/c(=N/C(=O)c3ccc(F)cc3F)[nH]c3cnc(OCCN4CCCCC4)cc32)CC1 [Example 94, (E)-2,4-Difluoro-N-(1-(cis-4-(isopropylcarbamoyl)cyclohexyl)-6-(2-(piperidin-1-yl)ethoxy)-1H-imidazo[4,5-c]pyridin-2(3H)-ylidene)benzamide]
The IC50 of the first is higher: 1000 to 5000 nM for the first, 50 to 100 nM for the second. The second is the more potent here.
